The values that follow come from ChEMBL document CHEMBL1137211, “Inhibitors of phenylethanolamine N-methyltransferase that are predicted to penetrate the blood-brain barrier: design, synthesis, and evaluation of 3-fluoromethyl-7-(N-substituted aminosulfonyl)-1,2,3,4-tetrahydroisoquinolines that possess low affinity toward the alpha2-adrenoceptor” (J Med Chem, 2004).

The species named for the first test is Homo sapiens. Nature of the test: Ratio of Ki for alpha-2-adrenoceptor to that of PNMT was determined.
Take `O=S(=O)(Nc1cccc(Cl)c1)c1ccc2c(c1)CNC(CF)C2` (stereo not given): the Selectivity was over 1.1.
Regarding `O=[N+]([O-])c1cccc(NS(=O)(=O)c2ccc3c(c2)CNC(CF)C3)c1` (stereo not given), the Selectivity was over 4.

The next test addresses T1, Phenylethanolamine N-methyltransferase (Homo sapiens, UniProt P11086).
T1 sequence (P11086 whole entry): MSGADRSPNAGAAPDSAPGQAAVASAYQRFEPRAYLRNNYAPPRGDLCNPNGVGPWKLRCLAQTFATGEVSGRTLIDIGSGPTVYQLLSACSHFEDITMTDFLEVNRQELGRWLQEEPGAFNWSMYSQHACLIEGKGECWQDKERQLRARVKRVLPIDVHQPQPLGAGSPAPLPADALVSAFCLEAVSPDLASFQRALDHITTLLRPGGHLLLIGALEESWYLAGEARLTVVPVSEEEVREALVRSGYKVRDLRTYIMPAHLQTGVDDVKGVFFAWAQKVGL
Experiment: not given
Compound `O=S(=O)(Nc1cccc(Cl)c1)c1ccc2c(c1)CNC(CF)C2` (stereo not given) displayed a Ki of 890 µM.
`O=[N+]([O-])c1cccc(NS(=O)(=O)c2ccc3c(c2)CNC(CF)C3)c1` (stereo not given) came in with a Ki of 250 µM.

Another test concerns the target T2, Adrenergic receptor alpha-2 (Rattus norvegicus, UniProt P22086+P19328+P22909).
T2 sequence (P22086 whole entry): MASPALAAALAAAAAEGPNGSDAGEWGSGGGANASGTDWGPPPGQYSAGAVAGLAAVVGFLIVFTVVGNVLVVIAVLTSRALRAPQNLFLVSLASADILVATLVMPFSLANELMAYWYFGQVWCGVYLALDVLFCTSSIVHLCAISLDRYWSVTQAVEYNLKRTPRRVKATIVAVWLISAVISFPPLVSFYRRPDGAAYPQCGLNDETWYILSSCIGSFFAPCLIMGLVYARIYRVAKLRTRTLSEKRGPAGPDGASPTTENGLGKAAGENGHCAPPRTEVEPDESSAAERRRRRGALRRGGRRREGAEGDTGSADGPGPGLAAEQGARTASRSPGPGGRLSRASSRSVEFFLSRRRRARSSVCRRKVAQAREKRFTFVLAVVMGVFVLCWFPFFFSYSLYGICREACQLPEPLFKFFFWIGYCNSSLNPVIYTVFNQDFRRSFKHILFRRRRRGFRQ
T2 sequence (P19328 whole entry): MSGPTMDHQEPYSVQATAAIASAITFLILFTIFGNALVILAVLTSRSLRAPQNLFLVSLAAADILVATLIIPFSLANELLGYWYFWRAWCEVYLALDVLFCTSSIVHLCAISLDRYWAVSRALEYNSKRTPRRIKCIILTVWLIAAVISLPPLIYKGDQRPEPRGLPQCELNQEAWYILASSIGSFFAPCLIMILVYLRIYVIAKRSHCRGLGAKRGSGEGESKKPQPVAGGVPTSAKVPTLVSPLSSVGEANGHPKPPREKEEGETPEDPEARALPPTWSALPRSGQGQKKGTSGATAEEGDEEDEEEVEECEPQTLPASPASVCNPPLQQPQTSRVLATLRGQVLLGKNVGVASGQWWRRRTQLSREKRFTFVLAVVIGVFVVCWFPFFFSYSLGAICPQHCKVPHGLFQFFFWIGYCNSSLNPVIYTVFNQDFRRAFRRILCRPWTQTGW
T2 sequence (P22909 whole entry): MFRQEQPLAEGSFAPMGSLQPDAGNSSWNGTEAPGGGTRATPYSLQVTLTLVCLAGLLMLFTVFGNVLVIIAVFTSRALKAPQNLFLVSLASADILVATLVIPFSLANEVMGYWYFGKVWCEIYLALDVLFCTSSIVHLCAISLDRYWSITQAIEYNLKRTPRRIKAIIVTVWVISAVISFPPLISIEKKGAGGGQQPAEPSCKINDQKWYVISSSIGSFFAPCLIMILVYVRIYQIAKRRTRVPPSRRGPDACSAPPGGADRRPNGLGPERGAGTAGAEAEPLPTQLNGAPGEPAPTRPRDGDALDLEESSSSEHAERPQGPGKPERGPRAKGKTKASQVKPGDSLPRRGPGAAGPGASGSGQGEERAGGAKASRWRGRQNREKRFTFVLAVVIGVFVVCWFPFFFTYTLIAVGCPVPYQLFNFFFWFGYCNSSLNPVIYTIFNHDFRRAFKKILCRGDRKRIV
In words: Inhibition of [3H]clonidine binding to rat Alpha2 adrenoceptor. Type of test: protein assay.
On to `O=S(=O)(c1ccc2c(c1)CNC(CF)C2)N1CCCCC1` (stereo not given), for which the Ki worked out at 820 µM.
The compound `O=S(=O)(Nc1ccc(Cl)cc1)c1ccc2c(c1)CNC(CF)C2` (stereo not given) yielded a Ki of 140 µM.
For the compound `CC(C)NS(=O)(=O)c1ccc2c(c1)CNC(CF)C2` (stereo not given), the Ki came to 580 µM.
Same read-out and setting: under `O=S(=O)(Nc1ccc(O)cc1)c1ccc2c(c1)CNC(CF)C2` (stereo not given) stands 280 µM; under `CCOCCCNS(=O)(=O)c1ccc2c(c1)CNC(CF)C2` (stereo not given), 350 µM; under `O=S(=O)(NCCC(F)(F)F)c1ccc2c(c1)CNC(CF)C2` (stereo not given), 660 µM.
`O=[N+]([O-])c1ccc(NS(=O)(=O)c2ccc3c(c2)CNC(CF)C3)cc1` (stereo not given) displayed a Ki of over 1000 µM.
The compound `CCNS(=O)(=O)c1ccc2c(c1)CNC(CF)C2` (stereo not given) had a Ki of 550 µM.
On to `CCCNS(=O)(=O)c1ccc2c(c1)CNC(CF)C2` (stereo not given), for which the Ki was 610 µM.
With `O=S(=O)(c1ccc2c(c1)CNC(CF)C2)N1CCOCC1` (stereo not given), the Ki worked out at 2100 µM.
`Clc1ccc2c(c1Cl)CNCC2` registered a Ki of 0.02 µM.
Regarding `O=S(=O)(NCC(F)(F)F)c1ccc2c(c1)CNC(CF)C2` (stereo not given), the Ki stood at 1200 µM.
Compound `O=S(=O)(Nc1cccc(Cl)c1)c1ccc2c(c1)CNC(CF)C2` (stereo not given) gave a Ki of over 1000 µM.
The same measure, in the same setting: under `CCOCCNS(=O)(=O)c1ccc2c(c1)CNC(CF)C2` (stereo not given) stands 440 µM.
The same measure, in the same setting: next, `O=S(=O)(NCCCCc1ccccc1)c1ccc2c(c1)CNC(CF)C2` (stereo not given): 6.8 µM; `O=S(=O)(Nc1ccc(F)cc1)c1ccc2c(c1)CNC(CF)C2` (stereo not given): 86 µM; `COCCCNS(=O)(=O)c1ccc2c(c1)CNC(CF)C2` (stereo not given): 750 µM.
Turning to `O=S(=O)(c1ccc2c(c1)CNC(CF)C2)N1CCSCC1` (stereo not given), the Ki stood at 190 µM.
As to `O=S(=O)(NCCc1ccccc1)c1ccc2c(c1)CNC(CF)C2` (stereo not given), the Ki was determined as 58 µM.
For the compound `O=[N+]([O-])c1cccc(NS(=O)(=O)c2ccc3c(c2)CNC(CF)C3)c1` (stereo not given), the Ki is over 1000 µM.
Take `O=S(=O)(NC1CCc2ccccc2C1)c1ccc2c(c1)CNC(CF)C2` (stereo not given): the Ki was 1.3 µM.
Take `O=S(=O)(Nc1ccc2ccccc2c1)c1ccc2c(c1)CNC(CF)C2` (stereo not given): the Ki was 12 µM.
Still for that read-out and setting: under `CCCCNS(=O)(=O)c1ccc2c(c1)CNC(CF)C2` (stereo not given) stands 260 µM; under `COCCNS(=O)(=O)c1ccc2c(c1)CNC(CF)C2` (stereo not given), 430 µM; under `O=S(=O)(NC12CC3CC(CC(C3)C1)C2)c1ccc2c(c1)CNC(CF)C2` (stereo not given), 100 µM.
`O=S(=O)(NCCCC(F)(F)F)c1ccc2c(c1)CNC(CF)C2` (stereo not given) yielded a Ki of 350 µM.
